Test results: US11696928B2, “Compounds and use thereof in the expansion of stem cells and/or progenitor cells” (UNIVERSITE DE MONTREAL, priority 2017, dated 2023)

Key:
[1] = tested on: Human CD34+ cord blood (CB) cells; assay: Assessment of engraftment and myeloid vs lymphoid lineage contribution in vivo; design: species or system NSG mice
[2] = tested on: Human CD34+ cord blood (CB) cells; assay: Assessment of cell composition in vitro (7-day culture of CB CD34+ cells); settings: for expansion of CD34+CD45RA+ cells: alone or in combination with UM171, 7 days, FIGS. 1B, 1C and 1D; for overall percentage of CD34+ cells in cultures: combined use with UM171, 7 days, FIG. 1A right panel and FIG. 1D; for percentage of Dendritic Cells and Mast Cells: combined use with UM171, compared to Compounds used alone, FIG. 1D
[3] = tested on: Human CD34+ cord blood (CB) cells; assay: CD34+ activity assessment (7-day expansion of pre-expanded CD34+ cells, flow cytometry); type: cell-based; settings: concentration at which compound/vehicle ratio of CD34+ cell number is >= 1.5, 7 days, with 35 nM UM0128171
AhR = target: T1, AhR (Homo sapiens, UniProt P35869); assay: Inhibition of AhR-mediated gene transcription (HEK-XRE 11.1 luciferase reporter, MeBIO induction); type: cell-based; settings: HEK-XRE 11.1 cells, MeBIO 0.1 nM, luminescence after 24 hours
T1 construct: One of the resultant clones was named HEK-XRE 11.1, and used in the reporter gene assays; endogenous in cells; host or cells: HEK-XRE 11.1 (HEK cells stably carrying the AhR-responsive luciferase reporter X4-4.27 and phRL-CMV)
T1 sequence (P35869 11-848): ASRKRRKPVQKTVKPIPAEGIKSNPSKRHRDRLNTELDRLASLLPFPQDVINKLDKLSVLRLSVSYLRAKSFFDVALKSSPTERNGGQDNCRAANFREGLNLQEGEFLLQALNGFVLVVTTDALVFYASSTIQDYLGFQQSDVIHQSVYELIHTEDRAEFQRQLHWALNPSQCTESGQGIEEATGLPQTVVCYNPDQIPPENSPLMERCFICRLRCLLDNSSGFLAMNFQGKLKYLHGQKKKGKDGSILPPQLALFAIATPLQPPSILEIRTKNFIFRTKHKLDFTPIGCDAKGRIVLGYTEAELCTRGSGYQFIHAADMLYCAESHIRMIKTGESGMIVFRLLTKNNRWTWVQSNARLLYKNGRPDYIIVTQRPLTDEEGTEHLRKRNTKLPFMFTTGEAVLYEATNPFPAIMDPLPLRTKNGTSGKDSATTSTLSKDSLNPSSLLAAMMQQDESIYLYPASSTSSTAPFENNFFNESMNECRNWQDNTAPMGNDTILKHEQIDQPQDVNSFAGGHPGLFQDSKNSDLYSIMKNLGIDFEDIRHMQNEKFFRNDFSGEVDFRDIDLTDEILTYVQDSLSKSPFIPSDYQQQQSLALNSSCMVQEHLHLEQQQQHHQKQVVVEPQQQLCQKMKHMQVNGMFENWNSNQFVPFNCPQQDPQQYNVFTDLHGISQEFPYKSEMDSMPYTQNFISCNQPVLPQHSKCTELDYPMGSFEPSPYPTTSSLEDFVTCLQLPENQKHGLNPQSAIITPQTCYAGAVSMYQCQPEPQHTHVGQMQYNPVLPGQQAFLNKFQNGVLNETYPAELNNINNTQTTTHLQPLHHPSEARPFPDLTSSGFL
Procedure, shortened: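 HEK-XRE 11.1 cells, stably carrying an AhR-responsive firefly luciferase reporter, were stimulated with 0.1 nM MeBIO and given compounds in 8-point 1:3 serial dilutions from 10 mM (stock-range figure) in duplicate. Luminescence was read after 24 h culture without Renilla normalisation. Dose-response curves were fitted by nonlinear regression.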

| SMILES | EC1.5 ([3]; Table 1) | IC50 (AhR; Table 1) | other results |
| --- | --- | --- | --- |
| Nc1c(C(=O)Nc2ccccc2)sc2nc3c(cc12)CCC3 [Compound 1001] | <100 nM | < 50 nM | engraftment of expanded CB cells in the long term (12 and 20 weeks post transplantation) ([1]; CB cells expanded 7 days, alone or in combination with UM171, NSG mice bone marrow, FIG. 2A): engrafted with higher efficiency in the long term; contribution of lymphoid lineage ([1]; engrafted human CB cells in NSG mice, FIG. 2B): greatly increased; number of CD34+ cells in CB cultures ([2]; 7 days culture, compared to other conditions, FIG. 1A middle): increases the number of CD34+ cells; expansion of CD34+CD45RA+ cells [2]: favors the expansion of CD34+CD45RA+ cells; overall percentage of CD34+ cells in cultures [2]: increased the overall percentage of CD34+ cells; percentage of Dendritic Cells and Mast Cells [2]: increased the percentage of Dendritic Cells and Mast Cells |
| COc1ccc(NC(=O)c2sc3ncc(C)cc3c2N)cc1 [Compound 1114] | <100 nM | < 50 nM | expansion of CD34+CD45RA+ cells [2]: favors the expansion of CD34+CD45RA+ cells; overall percentage of CD34+ cells in cultures [2]: increased the overall percentage of CD34+ cells; percentage of Dendritic Cells and Mast Cells [2]: increased the percentage of Dendritic Cells and Mast Cells |
| Nc1c(C(=O)Nc2cccc(Cl)c2)sc2ccc(C(F)(F)F)cc12 [Compound 1144] | >5000 nM | < 50 nM | – |
| Cc1cccc(NC(=O)c2sc3ccc(C(F)(F)F)cc3c2N)c1 [Compound 1145] | >5000 nM | 50 to 500 nM | – |
| Nc1c(C(=O)Nc2ccc3c(c2)OCCO3)sc2ccc(C(F)(F)F)cc12 [Compound 1146] | >5000 nM | 50 to 500 nM | – |
| CCOc1ccc(NC(=O)c2sc3ccc(C(F)(F)F)cc3c2N)cc1 [Compound 1147] | >5000 nM | 50 to 500 nM | – |
| CSc1ccc(NC(=O)c2sc3ccc(C(F)(F)F)cc3c2N)cc1 [Compound 1148] | 100 to 1000 nM | 50 to 500 nM | – |
| Cc1cnc2sc(C(=O)Nc3ccc(OC(F)(F)F)cc3)c(N)c2c1 [Compound 1149] | 100 to 1000 nM | < 50 nM | – |
| Cc1cnc2sc(C(=O)Nc3ccsc3)c(N)c2c1 [Compound 1150] | 100 to 1000 nM | < 50 nM | – |
| Cc1ccc2sc(C(=O)Nc3ccc(OC(F)(F)F)cc3)c(N)c2c1 [Compound 1151] | >5000 nM | 50 to 500 nM | – |
| Nc1c(C(=O)Nc2ccsc2)sc2ccc(C(F)(F)F)cc12 [Compound 1152] | >5000 nM | < 50 nM | – |
| Nc1c(C(=O)Nc2ccc(F)cc2)oc2ncc(C(F)(F)F)cc12 [Compound 1154] | – | – | EC1.5 ([3]; Table 2): 100 to 1000 nM; IC50 (AhR; Table 2): < 50 nM |
